In US11691977B2, “Cyclic ether derivatives of pyrazolo[1,5-A]pyrimidine-3-carboxyamide” (Boehringer Ingelheim International GmbH, priority 2015, dated 2023):
pIC50: −log10 of the molar value.

Legend:
PDE 2A = PDE 2A (Homo sapiens (Human), UniProt O00408); assay: Phosphodiesterase (PDE) 2A assay with fluorescent substrate (IMAP, fluorescence polarization); type: biochemical; settings: PDE2A, read-out: PDE2 IC50
Method: (§1) The IMAP system (Molecular Device) using fluorescence polarization (FP) as detection principle was used to measure enzyme activity. A fluorescent labeled cAMP was used as substrate for the reaction, generating a labeled AMP. The fluorescent AMP binds specifically to the large M(III)-based nano-particles which reduces the rotational speed of the substrate and thus increases its polarization. Detailed Method: The inhibition of PDE 2A or 10 enzyme activity was assessed using IMAP-Phosphodiesterase-cAMP fluorescence labeled substrate (Molecular Devices, Order No. R7506), IMAP TR-FRET screening express (Molecular Devices, Order No. R8160, the TR-FRET component will not be used) and PDE 2A or PDE10 protein expressed upon baculovirus infection in SF9 cells. The cells were incubated after infection for ˜3 days and protein production was confirmed by Western Blot. The cells were collected by centrifugation and the pellet frozen in liquid nitrogen before it was resuspended in PBS containing 1% Triton X-100 and protease inhibitors. After 45 min incubation on ice, the cell debris was removed by centrifugation (13.000 rpm, 30 min). […] All reactions were performed in 384 well plates, Perkin Elmer black optiplates and IMAP reaction buffer with 0.1% Tween20 (kit component) Compounds were serial diluted in DMSO. […] Reaction is stopped by adding of 60 μl binding buffer for FP/cAMP (kit component).

PDE10 = PDE10 (Homo sapiens (Human), UniProt Q9Y233); assay: Phosphodiesterase (PDE) 10 assay with fluorescent substrate (IMAP, fluorescence polarization); type: biochemical
PDE10, sequence (Q9Y233 whole entry): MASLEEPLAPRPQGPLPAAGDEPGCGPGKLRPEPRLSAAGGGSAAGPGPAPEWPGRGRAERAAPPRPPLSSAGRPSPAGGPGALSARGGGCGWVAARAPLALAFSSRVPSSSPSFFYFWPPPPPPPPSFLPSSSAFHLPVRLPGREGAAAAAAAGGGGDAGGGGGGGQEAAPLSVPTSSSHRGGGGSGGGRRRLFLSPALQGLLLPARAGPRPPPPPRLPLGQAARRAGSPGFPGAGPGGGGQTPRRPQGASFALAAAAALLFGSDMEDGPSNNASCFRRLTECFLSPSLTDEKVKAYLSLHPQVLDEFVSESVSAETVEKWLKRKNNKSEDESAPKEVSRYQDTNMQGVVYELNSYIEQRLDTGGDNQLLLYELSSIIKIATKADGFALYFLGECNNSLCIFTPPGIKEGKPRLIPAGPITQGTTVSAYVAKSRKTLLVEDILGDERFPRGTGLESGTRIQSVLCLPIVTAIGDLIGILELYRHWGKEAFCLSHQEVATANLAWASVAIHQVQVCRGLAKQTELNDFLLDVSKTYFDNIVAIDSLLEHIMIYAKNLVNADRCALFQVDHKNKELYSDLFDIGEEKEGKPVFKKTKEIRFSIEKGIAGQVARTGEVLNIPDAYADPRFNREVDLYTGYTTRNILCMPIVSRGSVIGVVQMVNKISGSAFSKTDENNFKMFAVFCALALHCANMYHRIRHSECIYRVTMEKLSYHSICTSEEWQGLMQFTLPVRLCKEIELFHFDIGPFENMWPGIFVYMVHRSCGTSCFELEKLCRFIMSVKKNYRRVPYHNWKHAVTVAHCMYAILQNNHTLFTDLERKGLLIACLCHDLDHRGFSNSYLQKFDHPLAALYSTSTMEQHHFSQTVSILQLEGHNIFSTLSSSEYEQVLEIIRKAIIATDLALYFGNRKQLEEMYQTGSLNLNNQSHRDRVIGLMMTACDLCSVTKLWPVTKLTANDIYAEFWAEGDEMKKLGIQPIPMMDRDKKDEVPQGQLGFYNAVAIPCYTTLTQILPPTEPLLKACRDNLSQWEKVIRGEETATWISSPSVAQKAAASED
Method: as §1

human MDR1 P-gp = assay: Assessment of efflux in MDCK cells transfected with the human MDR1 gene (MDCK assay); type: in vitro ADME, canine; settings: dog
Method: Assessment of Efflux in Madin-Darby Canine Kidney Cells Transfected with the Human MDR1 Gene (MDCK Assay)
Apparent permeability coefficients (PE) of the compounds across the MDCK-MDR1 cell monolayers are measured (pH 7.4, 37° C.) in apical-to-basal (AB) and basal-to-apical (BA) transport direction. AB permeability (PEAB) represents drug absorption from the blood into the brain and BA permeability (PEBA) drug efflux from the brain back into the blood via both passive permeability as well as active transport mechanisms mediated by efflux and uptake transporters that are expressed on the MDCK-MDR1 cells, predominantly by the overexpressed human MDR1 P-gp. The compounds are assigned to permeability/absorption classes by comparison of the AB permeabilities with the AB permeabilities of reference compounds with known in vitro permeability and oral absorption in the human. Identical or similar permeabilities in both transport directions indicate passive permeation, vectorial permeability points to additional active transport mechanisms. Higher PEBA than PEAB indicates the involvement of active efflux mediated by MDR1 P-gp. […]
MDCK-MDR1 cells (1-2×10e5 cells/1 cm2 area) are seeded on filter inserts (Costar transwell polycarbonate or PET filters, 0.4 μm pore size) and cultured (DMEM) for 7 days. […] Efflux ratio is calculated dividing the Papp (b-a) values by the Papp (a-b) values.

PDE 2A, sequence (O00408 whole entry, species assumed): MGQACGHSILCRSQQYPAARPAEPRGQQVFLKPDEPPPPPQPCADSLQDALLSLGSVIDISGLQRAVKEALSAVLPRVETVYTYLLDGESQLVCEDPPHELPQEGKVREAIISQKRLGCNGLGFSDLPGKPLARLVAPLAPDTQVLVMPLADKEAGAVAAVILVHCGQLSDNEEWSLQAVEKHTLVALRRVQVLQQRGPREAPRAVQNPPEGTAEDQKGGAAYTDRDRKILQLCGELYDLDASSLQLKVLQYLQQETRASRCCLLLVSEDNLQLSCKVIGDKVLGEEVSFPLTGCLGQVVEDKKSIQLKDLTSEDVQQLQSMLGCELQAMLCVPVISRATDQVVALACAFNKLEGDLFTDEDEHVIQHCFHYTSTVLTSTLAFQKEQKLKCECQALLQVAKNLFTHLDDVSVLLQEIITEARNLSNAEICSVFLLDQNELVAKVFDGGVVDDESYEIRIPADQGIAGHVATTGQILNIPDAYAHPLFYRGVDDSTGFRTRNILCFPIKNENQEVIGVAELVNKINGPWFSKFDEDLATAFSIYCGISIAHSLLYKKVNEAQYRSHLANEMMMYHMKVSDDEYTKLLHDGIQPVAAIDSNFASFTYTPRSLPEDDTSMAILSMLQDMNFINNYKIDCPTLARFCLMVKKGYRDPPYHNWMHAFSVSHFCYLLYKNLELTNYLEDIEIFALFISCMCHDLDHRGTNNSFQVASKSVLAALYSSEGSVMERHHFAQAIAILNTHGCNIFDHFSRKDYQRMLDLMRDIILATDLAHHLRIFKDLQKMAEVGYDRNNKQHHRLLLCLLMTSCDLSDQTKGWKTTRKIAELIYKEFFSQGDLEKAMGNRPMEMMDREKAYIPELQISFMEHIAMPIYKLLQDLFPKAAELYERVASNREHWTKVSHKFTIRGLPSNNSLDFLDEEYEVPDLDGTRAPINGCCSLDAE

pIC50 (PDE 2A): 7.06 | pIC50 (PDE10): 5.04 | efflux ratio (human MDR1 P-gp; pH 7.4, MDCK-MDR1, Papp (b-a) divided by Papp (a-b)): 0.8 | Papp A→B (human MDR1 P-gp; MDCK-MDR1, apical-to-basal, pH 7.4, 37° C.): 100 ×10⁻⁶ cm/s
SMILES: Cc1nn2cc(C3CC3)cnc2c1C(=O)NC1(c2ccc(C(F)(F)F)cn2)CCOCC1 [Example 25]
